Assay results as given in patent publication US8501679B2, “Cyclic, cystein-free protein” (priority 2007, dated 2013).
Entries after “also recorded” stand apart in the source; their conditions may differ. Where a SMILES comes first, the peptide text is derived from it. Bridges are numbered along the chain shown (N, C = ends).

How the values were obtained:
[1] = test system: pulmonary oedema / acute lung injury in Wistar rats; assay: Experimental animal study pulmonary oedema: lungs rinsed with acidified saline, arterial oxygen content; assay type: in vivo, rat; conditions: for improvement in the lung function (increased oxygen content in arterial blood): laboratory animals, injected into the lungs as a fog or aqueous solution, within 3 to 5 hours; for oxygen content of the arterial blood, % relative to the value before rinsing the lungs / oxygen content in the blood after administering protein: rat; for oxygen content of the arterial blood, % relative to the value before rinsing the lungs: 125 μg protein intratracheal, 180 minutes after rinsing the lungs, 20% at 60 minutes and without protein; for oxygen content in the blood after administering protein: intratracheal as a fog one hour after lung rinsing, FIG. 3A/3B
Experimental: For the simulation of an acute lung injury and for the formation of a pulmonary oedema, the lungs of laboratory animals, e.g., mice or rats, can be rinsed several times with an acidified saline solution in a manner common in laboratories (for example, according to Isik F. et al., Eur J Cardiothorac Surg (2005); 28: 301-305). The result is a decrease in lung function.
Male Wistar rats (weighing from 250 g to 350 g) are anesthetized with Rompun® (0.02 ml/100 g) and Ketavet® (0.1 ml/100 g). The respiration is done with a cycle of 72 blows/minute, with an inhalation time of 0.2 seconds and an exhalation time of 0.5 seconds. The body temperature ranges, on average, from 37° C. to 39° C. Under normal conditions, the PaO2 (arterial oxygen partial pressure) ranges from 500 to 550 mm Hg.
For the simulation of an acute lung injury and for the formation of a pulmonary oedema, the lungs are rinsed 7 to 9 times with an acidified saline solution (pH 5).
After one hour, the proteins comprising amino acid sequence SEQ ID NO:1 or SEQ ID NO:2, dissolved in sterile saline solution, are administered intratracheally as a fog (maximum volume administered: 0.5 ml).
At intervals of 60 minutes each, arterial blood (0.1 ml) is withdrawn from the animals, and the oxygen content is determined in % relative to the normal value.
The verification of the stimulating effect of a protein according to the present invention, e.g., of a protein comprising amino acid sequence SEQ ID NO:1, SEQ ID NO:2 or SEQ ID NO:3, on the lung function is made via experimental animal studies in which a pulmonary oedema is induced. The experimental procedure is described in Example 5.
For the intratracheal inhalation, 125 μg protein are, in each case, dissolved in 150 mM saline solution pH 7.3. The oxygen content of the arterial blood is measured immediately before rinsing the lungs, 60 minutes after rinsing the lungs and 180 minutes after rinsing the lungs. The oxygen content immediately before rinsing the lungs is determined to be 100%. 60 minutes after the respective final lung rinsing, the oxygen content in the blood amounts to, on average, only 20%. Within 3 hours, the percentage oxygen content rises to values of […]

[2] = test system: sodium ion channels of H441 cells; assay: Activation of ion channels of human epithelial cells, patch-clamp (whole cell / cell-attached); assay type: cell-based; conditions: FIG. 2A/2B
From the text: Furthermore, a method common in laboratories is to detect the activation of ion channels by means of patch-clamp experiments, and this is described, for example, in Clunes M. T. et al, J Physiol Volume 557, No. 3, 809-819 (Jun. 15, 2004). For patch-clamp examinations of ion channels, a glass cannula is stretched thin and filled with a neutral buffer solution. The glass cannula (patch-clamp pipette) is carefully pressed onto an intact epithelial cell. A piece of membrane is located below the pipette. An electrical resistance is thereby produced between the interior of the pipette and the external solution. An electrode attached to a sensitive amplifier dips into the pipette solution.
The electrophysiological experiments were performed on human H441 cells. H441 cells are human lung epithelial cells which are involved in the diffusion of water and electrolytes in the lungs.
The H441 cells were obtained from the American Tissue Culture Collection and cultivated in conventional cell culture vessels in RPMI 1640 medium (Invitrogen). […]
This protocol was carried out by adding proteins comprising amino acid sequence SEQ ID NO:1 or SEQ ID NO:2 as well as the sodium channel inhibitor amiloride. The current dissipations thus obtained were stored and analyzed by means of the program PCLAMP 6.0.

[3] = test system: human immune cells in fresh blood (IL-6 release); assay: Determination of inflammatory parameters: release of Interleukin-6 from human fresh blood (ELISA); assay type: cell-based; conditions: for release of the inflammation marker IL-6: human immune cells from blood incubated with the substance; for Concentration of Interleukin-6 (average of three measurements): human fresh blood, 24 hours at 37° C.
Experimental: For the examination, human immune cells from the blood are mixed with protein according to the present invention at a small concentration and are incubated in a manner common in laboratories. Subsequently, marker proteins for inflammations are determined in cell-free culture media by conventional methods.
Fresh human blood has a very sensitive reaction to pro-inflammatory molecules, among other things, with a release of the inflammation marker Interleukin-6 (IL-6). For determining the pro-inflammatory reaction, samples of human fresh blood at concentrations of the protein comprising amino acid sequence SEQ ID NO:2 were incubated at the following concentrations from 1 ng/ml to 10 μg/ml. After an incubation of 24 hours at 37° C., the inflammation marker Interleukin-6 was quantitatively determined in the solution via ELISA. LPS served as a positive control (concentrations of 3 ng/ml and 100 ng/ml).
In doing so, the measured data, which are indicated in TABLE 1 and which show the influence of the peptide protein comprising amino acid sequence SEQ ID NO:2 in comparison to LPS on the release of the inflammation marker Interleukin-6 from blood cells, were obtained.

Row | SMILES | improvement in the lung function (increased oxygen content in arterial blood) [1] | oxygen content of the arterial blood, % relative to the value before rinsing the lungs [1] [%] | oxygen content in the blood after administering protein [1] | activation of the sodium ion channels (amplitude of electrical signal) [2] | release of the inflammation marker IL-6 [3] | Concentration of Interleukin-6 (average of three measurements) ([3]; 1 ng/ml) | Concentration of Interleukin-6 (average of three measurements) ([3]; 3 ng/ml) | Concentration of Interleukin-6 (average of three measurements) ([3]; 1 μg/ml) | Concentration of Interleukin-6 (average of three measurements) ([3]; 10 μg/ml)
1 | CC[C@H](C)[C@H](NC(=O)[C@H](C)NC(=O)[C@H](CO)NC(=O)[C@H](CC(C)C)NC(=O)[C@H](CC(C)C)NC(=O)[C@H](CC(N)=O)NC(=O)[C@@H](N)C(C)C)C(=O)N[C@H]1CCCCNC(=O)CC[C@@H](C(=O)N2CCC[C@H]2C(=O)N[C@H](C(=O)N[C@@H](Cc2ccc(O)cc2)C(=O)N[C@@H](CC(C)C)C(=O)NCC(=O)O)[C@@H](C)CC)NC(=O)[C@H](Cc2ccc(O)cc2)NC(=O)[C@H](Cc2c[nH]c3ccccc23)NC(=O)[C@@H]2CCCN2C(=O)[C@H](CCCCN)NC(=O)[C@H](C)NC(=O)[C@H](CCC(=O)O)NC(=O)[C@H](C)NC(=O)CNC(=O)[C@H](CCC(=O)O)NC(=O)[C@@H]2CCCN2C(=O)[C@H]([C@@H](C)O)NC(=O)[C@H](CCC(=O)O)NC(=O)[C@H](CCCNC(=N)N)NC(=O)[C@H](CCC(N)=O)NC(=O)CNC(=O)[C@@H]2CCCN2C(=O)[C@H](CO)NC1=O [SEQ ID NO:1] (H-VNLLSAIKSPGQRETPEGAEAKPWYEPIYLG-OH; lactam 8-26) | distinct improvement in the lung function | 62 | increased | activation of the sodium ion channels | cannot be detected | – | – | – | –
2 | C[C@@H]1NC(=O)CNC(=O)[C@H](CCC(=O)O)NC(=O)[C@@H]2CCCN2C(=O)[C@H]([C@@H](C)O)NC(=O)[C@H](CCC(=O)O)NC(=O)[C@H](CCCNC(=N)N)NC(=O)[C@H](CCC(N)=O)NC(=O)CNC(=O)[C@@H]2CCCN2C(=O)[C@H](CO)NC(=O)[C@@H](N)CCCCNC(=O)CC[C@@H](C(=O)O)NC(=O)[C@H](Cc2ccc(O)cc2)NC(=O)[C@H](Cc2c[nH]c3ccccc23)NC(=O)[C@@H]2CCCN2C(=O)[C@H](CCCCN)NC(=O)[C@H](C)NC(=O)[C@H](CCC(=O)O)NC1=O [SEQ ID NO:2, (NH2)Lys-Ser-Pro-Gly-Gln-Arg-Glu-Thr-Pro-Glu-Gly-Ala-Glu-Ala-Lys-Pro-Trp-Tyr-Glu(COOH)] | distinct improvement in the lung function | 75 | increased | activation of the sodium ion channels | cannot be detected; also recorded: virtually no inflammation marker IL-6 is released | less than 0.5 pg/ml | less than 0.5 pg/ml | less than 0.5 pg/ml | less than 0.5 pg/ml
